Data taken from ChEMBL document CHEMBL1144501, “Synthesis, characterization and biological activity of complexes of lanthanum(III) with 2-(1'-phenyl- 2'-carboxyl-3'-aza-n-butyl)-1,10-phenanthroline and 2-(1'-p-phenol-2'-carboxyl-3'-aza-n-butyl)-1,10-phenanthroline” (Bioorg Med Chem, 2007).

How the values were obtained:
Assay type in all cases: cell-based
MDA-MB-435 = test: Cytotoxicity against human MDA-MB-435 cells after 72 hrs; settings: MDA-MB-435, 72 h
HeLa = test: Cytotoxicity against human HeLa cells after 72 hrs
[1] = Cytotoxicity against human Bel7402 cells after 72 hrs; settings: Bel-7402, 72 h
HL-60 = test: Cytotoxicity against human HL60 cells after 72 hrs; settings: HL-60, 72 h
[2] = Cytotoxicity against human PC-3MIE8 cells after 72 hrs; settings: PC-3MIE8, 72 h
[3] = Cytotoxicity against human BGC823 cells after 72 hrs; settings: BGC-823, 72 h

Measured: IC50

O=C(O)C(Cc1ccc(O)cc1)NCc1ccc2ccc3cccnc3c2n1 (configuration not stated)
> 100 µM: MDA-MB-435 | HeLa | [1] | HL-60 | [2] | [3]

O=C(O)C(Cc1ccccc1)NCc1ccc2ccc3cccnc3c2n1 (configuration not stated)
> 100 µM: MDA-MB-435 | HeLa | [1] | HL-60 | [2] | [3]
